These results are taken from patent US11066406B2, “Small molecule inhibitors of the JAK family of kinases” (Janssen Pharmaceutica NV, priority 2018, dated 2021).

Data set [1] in a line: Physical stability of solid forms (accelerated aging conditions / ambient). In kind it is physicochemical. The note with it: 2 days at 40° C./70% RH, HT-XRPD. The procedure:
Long term slurry experiments were performed by suspending compound embodiment 1s in twenty neat solvents and stirring at room temperature for two weeks and at 50° C. for one week. Upon completion of the equilibration time, the residual solids were separated from the mother liquors. The solids were dried under ambient conditions and dried under vacuum (5 mBar) before being analyzed by HT-XRPD. Subsequently, the solids were exposed to accelerated aging conditions (40° C./70% relative humidity) for two days and again analyzed by HT-XRPD.
The mother liquors of the solvent equilibration experiments performed at 50° C. were filtered at 50° C. to remove any particulate matter. The suspensions at 50° C. were filtered using 0.2 μm PTFE filters, and the solutions were placed at 5° C. and aged for 72 hours. When solids had precipitated during aging these solids were separated from the liquid, dried under ambient conditions and under vacuum, and analyzed by HT-XRPD. The remaining mother liquors were allowed to slowly evaporate and the remaining solids were analyzed by HT-XRPD. The samples in which no precipitation occurred were placed under vacuum and the dried solids were analyzed by HT-XRPD. All the solids were then exposed to AAC (2 days at 40° C./70% RH) and re-analyzed by HT-XRPD.
The cooling/evaporative crystallization experiments at μL scale were performed in a 96-well plate, using 12 neat solvents and 12 solvent mixtures and applying four temperature profiles. In each well approximately 4 mg of embodiment 1s was solid dosed. Subsequently, the crystallization solvents (80 μL) and solvent mixtures were added to reach a concentration of 50 mg/mL, and the plate, with each well individually sealed, to subsequently undergo one of the four temperature profiles. Upon completion of the temperature profile the solvents were allowed to evaporate at low ambient pressure (24 hours) and the remaining solids were analyzed by HT-XRPD before and after exposure to AAC for 2 days (40° C./70% RH).
The cooling crystallization experiments with hot filtration were performed from supersaturated solutions of compound Ex. 1 prepared at 50° C. in different solvent mixtures. The hot filtrated solutions underwent a 48-hour cooling profile. The vials in which solids had precipitated after the temperature profile were centrifuged and the solids were separated from the liquid and analyzed by HT-XRPD (after drying under vacuum). If no solids had precipitated the solutions were evaporated under vacuum and the solids analyzed by HT-XRPD. All the solids were exposed to AAC (2 days at 40° C./70% RH) and re-analyzed by HT-XRPD. […] In three experiments, an amorphous residue was recovered which after AAC crystallized to a mixture of members of embodiment 1 (1s or 1a) and 3 (3e) or became deliquescent. […]

Data set [2] in a line: Hygroscopicity (GVS) and static storage of embodiment 11. In kind it is physicochemical. As to the method:
In a hygroscopicity study of embodiment 11, it was found it to be only slightly hygroscopic, with a mass change of 0.66% between 0-90% RH in the GVS analysis as shown in FIG. 18. […] Variable temperature (VT)-XRPD was performed in order to assess the stability of embodiment 11 upon heating. […] The diffractograms of embodiment 11 before and after the VT-XRPD experiment, along with the diffractogram for embodiment 6 are shown in FIG. 24. Embodiment 11 was also subjected to static storage analysis at 40° C./75% RH for up to 48 days. The samples were analyzed by XRPD and Karl Fisher (KF) after 2 days, 5 days and 48 days.

For the compound `CC(C)(O)CNC(=O)Cc1nc2cnc3[nH]ccc3c2n1[C@H]1CC[C@H](CC#N)CC1` [embodiment 6, 2-(1-((1r,4r)-4-(Cyanomethyl)cyclohexyl)-1,6-dihydroimidazo[4,5-d]pyrrolo[2,3-b]pyridin-2-yl)-N-(2-hydroxy-2-methylpropyl)acetamide], the “physical stability after accelerated aging conditions (AAC)” value (“physical stability … (AAC)” below) in data set [1] is on record as “stable solid form”.
Take `CC(C)(O)CNC(=O)Cc1nc2cnc3[nH]ccc3c2n1[C@H]1CC[C@H](CC#N)CC1` [embodiment 2, 2-(1-((1r,4r)-4-(Cyanomethyl)cyclohexyl)-1,6-dihydroimidazo[4,5-d]pyrrolo[2,3-b]pyridin-2-yl)-N-(2-hydroxy-2-methylpropyl)acetamide]: in data set [1], the “physical stability … (AAC)” value is given as “converted to embodiment 3e”.
Regarding `CC(C)(O)CNC(=O)Cc1nc2cnc3[nH]ccc3c2n1[C@H]1CC[C@H](CC#N)CC1` [embodiment 11, 2-(1-((1r,4r)-4-(Cyanomethyl)cyclohexyl)-1,6-dihydroimidazo[4,5-d]pyrrolo[2,3-b]pyridin-2-yl)-N-(2-hydroxy-2-methylpropyl)acetamide], the “physical stability by XRPD on static storage” value in data set [2] (40° C./75% RH for up to 48 days) is “remained unchanged”. In addition, the “mass change in GVS analysis” value in data set [2] (between 0-90% RH) turned out to be 0.66%. The “total water uptake (Karl Fisher)” value in data set [2] (static storage 40° C./75% RH, after 48 days) stood at 1.2%.
For `CC(C)(O)CNC(=O)Cc1nc2cnc3[nH]ccc3c2n1[C@H]1CC[C@H](CC#N)CC1` [embodiment 5, 2-(1-((1r,4r)-4-(Cyanomethyl)cyclohexyl)-1,6-dihydroimidazo[4,5-d]pyrrolo[2,3-b]pyridin-2-yl)-N-(2-hydroxy-2-methylpropyl)acetamide], the “physical stability … (AAC)” value in data set [1] is given as “physically unstable”.
For the compound `CC(C)(O)CNC(=O)Cc1nc2cnc3[nH]ccc3c2n1[C@H]1CC[C@H](CC#N)CC1` [embodiment 7, 2-(1-((1r,4r)-4-(Cyanomethyl)cyclohexyl)-1,6-dihydroimidazo[4,5-d]pyrrolo[2,3-b]pyridin-2-yl)-N-(2-hydroxy-2-methylpropyl)acetamide], the “physical stability … (AAC)” value in data set [1] is “physically stable”.
